Laboratory results as given in publication PMC8238948, “Potent inhibitors of toxic alpha-synuclein identified via cellular time-resolved FRET biosensors” (NPJ Parkinson's Disease, 2021).
“Also recorded” adds a separate entry of the source. Where a name gives a salt, the structure may show the parent alone.

Experiments:
[1] = target: T1, intra-protomeric αSN biosensor (GFP-αSN-RFP) in HEK293 cells (Homo sapiens, UniProt P37840); assay: FRET response on intra-protomeric αSN biosensor; format: cell-based; conditions: 10 µM
T1 construct: In addition to full-length αSN fusion constructs, we observe both C-terminally and N-terminally truncated αSN species; expressed in transfected cells; host or cells: HEK293
Method: Hits were also evaluated with the intra-protomeric αSN and control, non-specific biosensors. […] The compounds RO, BAY, and DEM as well as the control EGCG each reduced FRET, indicating either reduction in oligomerization or expanded oligomer conformation. Tests of these compounds in two control biosensor systems (GFP/RFP at 1:8 and GFP-linker32-RFP; see Supplementary Fig. 13a, b, respectively) show no significant FRET change.
Fig. 7 FRET response to pilot HTS hits on intra-protomeric αSN biosensor. […] With both donor and acceptor XFP fused to one construct, this biosensor is sensitive to both oligomer formation as well as conformation. […] Experiments were performed with n = 3; *p < 0.05, **p < 0.01, ***p < 0.001, ns indicates no significant difference as determined by Student’s t test.

[2] = target: T2, A53T αSN oligomer (inter-protomeric) FRET biosensor in HEK293 cells (Homo sapiens, UniProt P37840, A53T); assay: FLT dose response, A53T oligomer (inter-protomeric) FRET biosensor; format: cell-based; conditions: 1 nM to 50 μM
T2 construct: In addition to full-length αSN fusion constructs, we observe both C-terminally and N-terminally truncated αSN species; expressed in transfected cells; host or cells: HEK293
Method: (§1) Hits from the pilot HTS of the LOPAC library were selected and dispensed into 384-well plates to verify reproducible and specific FLT trends using the WT and A53T oligomer (inter-protomeric) FRET biosensors. Figure 6 presents a subset of these dose-response curves for hit compounds RO, BAY, SB206553, and DEM, along with known control compound EGCG. […] Assay quality was determined by Z′ (Eq. 2) where a Z′ > 0.5 indicates good assay quality. Using EGCG as control compound and the hit DEM, we calculated Z′ value of 0.76 and 0.66, respectively, indicating excellent assay quality.
(§2) Fig. 6 FRET dose response of pilot HTS hits. A subset of hits were evaluated using both WT (a) and A53T (b) oligomer biosensor to verify both increased FLT (disrupting αSN–αSN interactions) and decreased FLT (tighter aggregation or remodeled oligomers).
(§3) Compounds were tested in a FLT dose-response assay. The compound was dissolved to 10 mM in DMSO, then serially diluted in 96-well mother plates. Each hit was re-screened for FLT dose response across eight concentrations (1 nM to 50 μM). Compounds (0.5 μL) were transferred from mother plates into assay plates using a Mosquito HV liquid handler (TTP Labtech Ltd, UK). The preparations for αSN FRET biosensors were carried out as above.

[3] = test system: differentiated SH-SY5Y cells treated with sonicated human αSN PFF; assay: Differentiated SH-SY5Y cell model of αSN PFF pathology (pS129 immunoblot); format: cell-based; conditions: 1 μM compound, 200 nM human PFF, 48 h; for total pS129 signal (words): relative to DMSO
Method: SH-SY5Y cells were differentiated using reduced serum (3%) media supplemented with 10 μM retinoic acid for 3 days and then changed to serum-free media supplemented with 10 ng/mL brain-derived neurotrophic factor for the remainder of the experiment. Stock αSN PFFs were diluted and sonicated as described previously. SH-SY5Y cultures were then treated with 200 nM PFF and PBS, DMSO, 1 μM drug compound (RO, BAY, or DEM), or 50 μM Baicalin. After 48 h, SH-SY5Y were washed with PBS and harvested in cold lysis buffer with protease and phosphatase inhibitors, as previously described. Approximately 15 μg of total protein was loaded onto a 4–20% Criterion TGX midi gel and probed using Syn1 (BD Biosciences, #610787; 1° 1:5000; 2° 1:10K) and pS^129 aSyn (abcam, ab59264; 1° 1:1000; 2° 1:5000) and a-tubulin (abcam, ab4074; 1° 1:1000; 2° 1:10K) page 19: Supplemental Figure 18. […] Differentiated SH-SY5Y cells were treated with PBS, vehicle (DMSO) or compounds with and without 200nM sonicated human αSN PFFs. […] These will be removed in subsequent densitometry analysis. (b) Replicates of PFF +/- compound treatment were ran for immunoblot analysis of pS129 immunoreactivity. (c) Densitometry analysis was performed using ImageLab from BioRad. Total pS129 signal (excluding the non- specific bands) was normalized to tubulin loading control. […] Quantification is normalized per lane to highlight change in the ratio of different species. Note, oligomers quantification is plotted relative to the right-y- axis. All statistical comparisons were to DMSO treatment using two-tailed t-test with * p<0.05; ** p<0.01; *** p<0.005.

αSN oligomers = target: T3, αSN oligomers (Homo sapiens, UniProt P37840); assay: ThT content (β-sheet) of αSN oligomers after oligomerization assay; format: biochemical; conditions: 70 μM compound (1:5 compound:monomer), 12 h oligomerization; vs DMSO
T3 construct: made in house; host or cells: Escherichia coli BL21(DE3), T7-7 plasmid
Method: To explore the presence of β-sheet content in these oligomers, an aliquot was removed prior to cross-linking, diluted into 100 μM ThT working solution, and ThT fluorescence was monitored to detect the presence of β-sheet. Supplementary Fig. 22 presents each sample ThT content normalized to the PFF signal. We observed an increased ThT content in the αSN oligomers (αS-O) that was not affected by DMSO (vehicle) treatment.
A 10-μL aliquot from each sample was taken and diluted with 290 μL ThT working solution (100 μM ThT in PBS) and dispensed into 3 wells of a 384-well, black opaque plate. Additional samples of PBS, αSN(m), and αSN PFF were used as controls. Plates were incubated at ambient temperature for 10 min and then fluorescence read at 450ex/490em on a Spectromax-i3x (Molecular Devices).
Supplemental Figure 22. Characterization of β-sheet content in αSN oligomers due to hit compound
After the 12-hour oligomerization assay aliquots of each sample were
removed and diluted in 100μM ThT and fluorescence read in triplicate (450ex/490em) in 384-well plates. The
ThT signal was normalized to a signal from previously frozen αSN PFF aliquots. After completion of the
PFF, green bar) and the ThT signal was not affected by DMSO (red bar). Oligomerization in the presence of
control compounds, EGCG and Baicalin, at 70μM (a sub-stoichiometric,1:5 compound: monomer ratio)
Our hit compounds RO, DEM, and BAY had differential effects with
both DEM and BAY resulting in increased ThT content and RO not producing a significant change relative to
(1 picture or pasted object on this page, not shown here)

[4] = target: T4, WT αSN oligomer (inter-protomeric) FRET biosensor in HEK293 cells (Homo sapiens, UniProt P37840); assay: FLT dose response, WT oligomer (inter-protomeric) FRET biosensor; format: cell-based; conditions: 1 nM to 50 μM
T4 construct: In addition to full-length αSN fusion constructs, we observe both C-terminally and N-terminally truncated αSN species; expressed in transfected cells; host or cells: HEK293
Method: as §1, §2, §3

| change in intra-protomeric FRET [1] | FLT trend in dose response [2] | ThT signal of αSN oligomers (αSN oligomers) | FLT trend in dose response [4] | SMILES | HMW pS129 assemblies [3] | LMW oligomer pS129 fraction [3] | monomeric pS129 fraction [3] | total pS129 signal (words) [3] | total pS129 signal (words) ([3]; listed as Bay) |
| --- | --- | --- | --- | --- | --- | --- | --- | --- | --- |
| reduced FRET | reduced FLT | no effect | reduced FLT | Nc1ccc(-c2nc3ccc(-c4nc5ccc(N)cc5[nH]4)cc3[nH]2)cc1 [RO, Ro 90–7501] | increase HMW assemblies | significantly reduced | significant reduction | significant reduction; also recorded: significant decrease |  |
| reduced FRET | reduced FLT | increased the ThT signal | reduced FLT | CN(C)[C@@H]1C(O)=C(C(N)=O)C(=O)[C@@]2(O)C(O)=C3C(=O)c4c(O)ccc(Cl)c4[C@@H](O)[C@H]3C[C@@H]12 [DEM, Demeclocycline HCl] | increase HMW assemblies | significantly reduced | significant reduction | non-significant change |  |
| reduced FRET | reduced FLT | increased the ThT signal | reduced FLT | COC(=O)C1=C(C)NC(C)=C([N+](=O)[O-])C1c1ccccc1C(F)(F)F (racemic) [BAY, (±)-Bay K 8644] | increase HMW assemblies | not BAY, reduce oligomers | significant reduction | significant increase | increased pS129 signal |
